Test results taken from patent US20210130411A1, “CYCLIC HEXAPEPTIDES COMPOUNDS WITH ANTI-MALARIAL ACTIVITY” (priority 2018, published 2021).
Read-outs that look alike come from different tables or passages of the source. Each block holds one molecule with its values, some of them ahead of it. Where a SMILES comes first, the peptide text is derived from it. [ ]: non-standard residue; d: D form. The star is where a group is joined. Trt = c1ccc(C(c2ccccc2)(c2ccccc2)*)cc1; Sar = CNCC(=O)O; tBu = CC(C)(C)*

Key:
P. falciparum 3D7 strain = test: Killing rates assay, P. falciparum 3D7 intraerythrocytic form; format: cell-based, Plasmodium falciparum
Procedure: The assay was performed in P. falciparum 3D7 strain in its intraerythrocytic form. […] Each compound was renewed (washing the parasites and adding culture media and the compound again) after the first 24 hours of treatment.

[1] = tested on: Plasmodium falciparum 3D7 (chloroquine-sensitive strain); test: microbe, parasite or virus in culture; format: cell-based
Procedure: For the in vitro study of the antimalarial activity against P. falciparum D7, two stock solutions were prepared: solution A (dilution of powder sample) at 20 mM and solution B at 1 mM (made by dilution of solution A). Next, the compounds were diluted 100-fold (drug solution=10 μM), then, suitable volume of drug solution was transferred in the SYBR GREEN assay plate (final concentration=10-0.15 μM). However, due to the high potency of the samples, the initial concentration was reduced in order to determine the EC50 values. The assay condition included: hematocrit at 2%, initial parasitemia 0.5% and artesunate and pyrimethamine were used as positive control. The fluorescence of each well is measured. The EC50 value of each compound was assessed in at least two independent experiments.
(§1) were tested in vitro against the intraerythrocytic form of the parasite Plasmodium falciparum K1 (chloroquine-resistant strain) and Plasmodium falciparum 31D7 (chloroquine-sensitive strain). The selectivity index (SI) was determined as the ration between EC50 against murine macrophages or HepG2 cells and the EC50 against P. falciparum. In the following Table 1 is shown the results of the EC50 obtained for each of the tested compounds against P. falciparum K1 (P. f. K1) and P. falciparum 3D7 (P. f. 3D7) and the SI calculated.

[2] = tested on: P. falciparum K1 (chloroquine-resistant strain); test: microbe, parasite or virus in culture
Procedure: For the in vitro study of the antimalarial activity against P. falciparum K1, this strain originating from Thailand that is resistant to chloroquine and pyrimethamine but sensitive to mefloquine was used. The cultures are naturally asynchronous (65-75% ring stage) and are maintained in continuous log phase growth in RPM11640 medium supplemented with 5% washed human A+erythrocytes, 25 mM HEPES, […] NaHCO3, and AlbuMAXII (lipid-rich bovine serum albumin) (GIBCO, Grand Island, N.Y.) (CM). All cultures and assays are conducted at 37° C. under an atmosphere of 5% CO2 and 5% 02, with a balance of N2.
For drug sensitivity assays, tock drug solutions are prepared in 100% DMSO (dimethylsulfoxide) at 20 mM. The compound is further diluted to the appropriate concentration using complete medium RPM11640 supplemented with 15 nM cold hypoxanthine and AlbuMAXII. Assays are performed in sterile 96-well microtitre plates, each plate contains […] of parasite culture (0.5% parasitemia, 2.5% hematocrit). Each drug is tested in triplicate and parasite growth is compared to control and blank (uninfected erythrocytes) wells. After 24 h of incubation at 37° C., 3.7 Bq of [3H]hypoxanthine is added to each well. Cultures are incubated for a further 24 h before they are harvested onto glass-fiber filter mats. The radioactivity is counted using a Wallac Microbeta 1450 scintillation counter. […] The percentage inhibition is calculated from comparison of blank and control wells, and EC50 values are calculated using Prism™. Screen. The K1 line is used. The compound is diluted threefold over 12 different concentrations with an appropriate starting concentration. The EC50 is determined by a sigmoidal dose-response analysis using Prism™. For each assay, the EC50 value for the parasite line is determined against the known antimalarials chloroquine and artesunate, plus other standard compounds appropriate for the assay.
were tested in vitro against the intraerythrocytic form of the parasite Plasmodium falciparum K1 (chloroquine-resistant strain) and Plasmodium falciparum 31D7 (chloroquine-sensitive strain). The selectivity index (SI) was determined as the ration between EC50 against murine macrophages or HepG2 cells and the EC50 against P. falciparum.

[3] = tested on: murine macrophages or HepG2 cells; test: Selectivity index: EC50 against murine macrophages or HepG2 cells over EC50 against P. falciparum; format: cell-based; details: ratio of EC50 against murine macrophages or HepG2 cells to EC50 against P. falciparum
Procedure: as §1

Plasmodium sp. = details: background statement, strain not stated; cited from earlier work
P. berghei = test: Anti-malarial activity in vivo in mice inoculated with P. berghei; details: 50 mg/Kg oral, 3 consecutive days
[4] = Plasma pharmacokinetics after single oral administration; format: in vivo, male Swiss Albino mice
Procedure: The objective of this study was to investigate the plasma pharmacokinetics of the compound CF-88 in male Swiss Albino mice following a single oral administration. Nine animals were used in this study as Group 1 (PO: 50 mg/kg). Animals were administered with solution formulation of CF-88 in 3% DMSO and RPMI medium via oral route at 50 mg/kg. The blood samples were collected from set of three mice at each time point in labeled micro centrifuge tube containing K2EDTA solution as anticoagulant at 0.25, 0.5, 1, 2, 4, 6, 8, 12 and 24 hr. Plasma samples were separated by centrifugation of whole blood and stored below −70±10° C. until bioanalysis. All samples were processed for analysis by protein precipitation using acetonitrile and analyzed with fit-for-purpose LC-MS/MS method (LLOQ=5.16 ng/mL). Pharmacokinetic parameters were calculated using the non-compartmental analysis tool of Phoenix WinNonlin® (Version 7.0).
For the preparation of the oral formulation accurately weighed 19.93 mg of compound for PO dosing was added in a labeled bottle. The volume 0.112 mL of DMSO was added and vortexed. The volume 3.617 mL of RPMI medium was added and vortexed. The final formulation (5 mg/mL) was vortexed for 2 minutes to get finely suspended formulation.
After preparation of formulations, a volume of 200 μL was aliquoted for analysis. […] Formulations were prepared freshly prior to dosing.
Blood samples (approximately 60 μL) were collected from retro-orbital plexus of three mice at 0.25, 0.5, 1, 2, 4, 6, 8, 12 and 24 hr. Samples were collected into labeled micro-tubes, containing K2EDTA solution (20% K2EDTA solution) as an anticoagulant. Plasma was immediately harvested from the blood by centrifugation at 4000 rpm for 10 min at 4±2° C. and stored below −70° C. until bioanalysis.

P. b. (liver st) = test: Biological activity in vitro against the hepatic form of the parasite; format: cell-based, P. berghei
[5] = 0 hrs of treatment, compound at 10×EC50
[6] = 24 hrs of treatment, compound at 10×EC50 (CF89 500 nM, SP79 30 nM)
[7] = 48 hrs of treatment, compound renewed after 24 hrs, 10×EC50
[8] = read-out: EC50 P. f. K1, intraerythrocytic form, chloroquine-resistant strain
[9] = intraerythrocytic form, chloroquine-sensitive strain, read-out: EC50 P. f. 3D7
[10] = Plasmodium falciparum, K1, read-out: EC50 P. f. K1
[11] = male, Swiss Albino, mouse, in vivo, po, 50 mg/kg
[12] = male, Swiss Albino, mouse, plasma, PO 50 mg/kg, 12 hrs after administration, read-out: plasma concentration at 12 hrs

SMILES: O=C1C(O)=C([C@H]2CC[C@H](c3ccc(Cl)cc3)CC2)C(=O)c2ccccc21 [Atovaquone]
Survival % (P. falciparum 3D7 strain; [5]): 100% | Survival % (P. falciparum 3D7 strain; [6]): 56.55% | Survival % (P. falciparum 3D7 strain; [7]): 32.02%

EC50 ([1]; Plasmodium falciparum, 3D7, intraerythrocytic form, chloroquine-sensitive strain, read-out: EC50 P. f. 3D7): 31 nM
SMILES: CCc1nc(N)nc(N)c1-c1ccc(Cl)cc1 [Pyrimethamine]
Survival % (P. falciparum 3D7 strain; [5]): 100% | Survival % (P. falciparum 3D7 strain; [6]): 53.52% | Survival % (P. falciparum 3D7 strain; [7]): 9.59%

SMILES: C[C@@H](OC(C)(C)C)[C@@H]1NC(=O)CNC(=O)[C@H](CSC(c2ccccc2)(c2ccccc2)c2ccccc2)NC(=O)CNC(=O)[C@H](CSC(c2ccccc2)(c2ccccc2)c2ccccc2)NC(=O)CN(C)C1=O [CF90, Cycle-L-Thr(^tBu)-NMe-Gly-L-Cys(Trt)-Gly-L-Cys(Trt)-Gly] (cyclo(C(Trt)GC(Trt)GT(tBu)[Sar]))
EC50 [2, 8]: 0.13 nM | EC50 [1, 9]: 1.4 nM | SI [3]: >1 × 10^5

SMILES: C[C@H]1[C@H](OC(=O)CCC(=O)O)O[C@@H]2O[C@@]3(C)CC[C@H]4[C@H](C)CC[C@@H]1[C@@]24OO3 [Artesunate]
EC50 [2, 10]: 3 nM | EC50 ([1]; Plasmodium falciparum, 3D7, read-out: EC50 P. f. 3D7): 5 nM | Survival % (P. falciparum 3D7 strain; [5]): 100% | Survival % (P. falciparum 3D7 strain; [6]): 10.01% | Survival % (P. falciparum 3D7 strain; [7]): 8.59% | EC50 (Plasmodium sp.): 5 nM

SMILES: CN1CC(=O)N[C@@H](CSC(c2ccccc2)(c2ccccc2)c2ccccc2)C(=O)N(C)CC(=O)N[C@@H](CSC(c2ccccc2)(c2ccccc2)c2ccccc2)C(=O)N(C)CC(=O)N[C@@H](CCC(=O)O)C1=O [CFfs49.4, Cycle-NMe-Gly-L-Cys(Trt)-NMe-Gly-L-Cys(Trt)-NMe-Gly-L-Glu] (cyclo(C(Trt)[Sar]C(Trt)[Sar]E[Sar]))
EC50 [2, 8]: 0.2 nM | EC50 [1, 9]: 12 nM | SI [3]: >20000 | Days of survival (P. berghei): 23 ± 4 days | Parasitemia (P. berghei; Day 5): 1.1 ± 0.2 | Parasitemia (P. berghei; Day 7): 1.6 ± 0.2 | Parasitemia (reduction %) (P. berghei; Day 7): (46 ± 6%) | Parasitemia (P. berghei; Day 9): 4.8 ± 0.5 | Parasitemia (reduction %) (P. berghei; Day 9): (50 ± 4%)

SMILES: C[C@@H](OC(C)(C)C)[C@@H]1NC(=O)CN(C)C(=O)[C@H](CSC(c2ccccc2)(c2ccccc2)c2ccccc2)NC(=O)CNC(=O)[C@H](CSC(c2ccccc2)(c2ccccc2)c2ccccc2)NC(=O)CN(C)C1=O [CF88, Cycle-NMe-Gly-L-Thr(^t-Bu)-NMe-Gly-L-Cys(Trt)-Gly-L-Cys(Trt)] (cyclo(C(Trt)GC(Trt)[Sar]T(tBu)[Sar]))
EC90 ([2]; against P. falciparum K1): 1 nM | EC50 [2, 8]: 0.008 nM | EC50 [1, 9]: 0.25 nM | SI [3]: >1 × 10^6 | Days of survival (P. berghei): 25 ± 7 days | Parasitemia (P. berghei; Day 5): 0.9 ± 0.7 | Parasitemia (P. berghei; Day 7): 1.7 ± 0.3 | Parasitemia (reduction %) (P. berghei; Day 7): (46 ± 10%) | Parasitemia (P. berghei; Day 9): 6 ± 1 | Parasitemia (reduction %) (P. berghei; Day 9): (33 ± 10%) | clinical signs after oral administration ([4]; PO 50 mg/kg single dose): all animals were normal without any clinical signs | t1/2 ([4]; PO 50 mg/kg, plasma, 4, 6, 8 and 12 hr time points considered (r^2 = 0.7325)): 4.93 h | detected in plasma up to ([4]; PO 50 mg/kg, time after administration): 12 h | detection in plasma at 24 hrs ([4]; PO 50 mg/kg, LLOQ 5.16 ng/mL): no detection | AUCinf [4, 11]: 390.71 | AUClast [4, 11]: 314.79 | Cmax [4, 11]: 61.13 ng/mL | tmax [4, 11]: 2 h | level at 12 h [4, 12]: 10.8 ng/mL | level at time molar at 12 h [4, 12]: 10 nM

SMILES: CCN(CC)CCCC(C)Nc1ccnc2cc(Cl)ccc12 (stereo not drawn) [Chloroquine, reference compound]
EC50 [2, 10]: 470 nM | Survival % (P. falciparum 3D7 strain; [5]): 100% | Survival % (P. falciparum 3D7 strain; [6]): 14.13% | Survival % (P. falciparum 3D7 strain; [7]): 7.04% | Days of survival (P. berghei): >30 days | Parasitemia (reduction %) (P. berghei; Day 5 (96 hrs after infection)): (100%) | Parasitemia (P. berghei; Day 5): 0 | Parasitemia (P. berghei; Day 7): 0 | Parasitemia (reduction %) (P. berghei; Day 7): (100%) | Parasitemia (P. berghei; Day 9): 0 | Parasitemia (reduction %) (P. berghei; Day 9): (100%)

SMILES: COC(=O)CC[C@@H]1NC(=O)CN(C)C(=O)[C@H](CSC(c2ccccc2)(c2ccccc2)c2ccccc2)NC(=O)CN(C)C(=O)[C@H](CSC(c2ccccc2)(c2ccccc2)c2ccccc2)NC(=O)CN(C)C1=O [CFfs49.5] (cyclo(C(Trt)[Sar]C(Trt)[Sar]E(OMe)[Sar]))
EC50 [1, 9]: 5.2 nM | SI [3]: >40000

EC50 [2, 10]: 20 nM
SMILES: C[C@@H]1CC[C@H]2[C@@H](C)C(=O)O[C@@H]3O[C@@]4(C)CC[C@@H]1[C@]32OO4 [Artemisinine, reference compound]
EC50 (Plasmodium sp.): 20 nM

EC50 ([1]; 3D7 (chloroquine-sensitive strain)): 3.8 nM
SMILES: CN1CC(=O)N[C@@H](CSC(c2ccccc2)(c2ccccc2)c2ccccc2)C(=O)N(C)CC(=O)N[C@@H](CSC(c2ccccc2)(c2ccccc2)c2ccccc2)C(=O)N(C)CC(=O)N[C@@H](COC(C)(C)C)C1=O [CF87, Cycle-NMe-Gly-L-Cys(Trt)-NMe-Gly-L-Ser(^t-Bu)-NMe-Gly-L-Cys(Trt)] (cyclo(C(Trt)[Sar]C(Trt)[Sar]S(tBu)[Sar]))
SI [3]: > 12500

SMILES: C[C@@H](OC(C)(C)C)[C@@H]1NC(=O)CN(C)C(=O)[C@H](CSC(c2ccccc2)(c2ccccc2)c2ccccc2)NC(=O)CN(C)C(=O)[C@H](CSC(c2ccccc2)(c2ccccc2)c2ccccc2)NC(=O)CN(C)C1=O [SP79, Cycle-NMe-Gly-L-Thr(^t-Bu)-NMe-Gly-L-Cys(Trt)-NMe-Gly-L-Cys(Trt)] (cyclo(C(Trt)[Sar]C(Trt)[Sar]T(tBu)[Sar]))
EC50 [2, 8]: 0.7 nM | EC50 [1, 9]: 1 nM | SI [3]: >140000 | EC50 (P. b. (liver st)): 18.6 nM | Survival % (P. falciparum 3D7 strain; [5]): 100% | Survival % (P. falciparum 3D7 strain; [6]): 83.74% | Survival % (P. falciparum 3D7 strain; [7]): 57.48%
